Test results reported in ChEMBL document CHEMBL1201862, “PubChem BioAssay data set” (2004).
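Test compounds were applied to cells in 96-well plates for 48 hours at 5 doses. GI50: concentration for 50% inhibition of growth.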 The source made the active and inactive calls. No stated cut-off is given here; in the data, active = GI50 up to about 1.1 µM and inactive = higher.

Tests used:
Assay in all cases: DTP human tumour cell line panel, 48 h
BT-549 = tested on: BT-549
SNB-75 = tested on: SNB-75
LOX IMVI = tested on: LOX IMVI
NCI-H522 = tested on: NCI-H522
SK-OV-3 = tested on: SK-OV-3
SF-295 = tested on: SF-295
HOP-92 = tested on: HOP-92
HL-60 = tested on: HL-60
UO-31 = tested on: UO-31
786-0 = tested on: 786-0
HCT-15 = tested on: HCT-15
UACC-62 = tested on: UACC-62
DU-145 = tested on: DU-145
OVCAR-3 = tested on: OVCAR-3
MCF7 = tested on: MCF7
OVCAR-5 = tested on: OVCAR-5
Malme-3M = tested on: Malme-3M
HCT-116 = tested on: HCT-116
MOLT-4 = tested on: MOLT-4
MDA-N = tested on: MDA-N

SMILES	GI50 (BT-549)	GI50 (SNB-75)	GI50 (LOX IMVI)	GI50 (NCI-H522)	GI50 (SK-OV-3)	GI50 (SF-295)	GI50 (HOP-92)	GI50 (HL-60)	GI50 (UO-31)	GI50 (786-0)	GI50 (HCT-15) [µM]	GI50 (UACC-62)	GI50 (DU-145)	GI50 (OVCAR-3)	GI50 (MCF7)	GI50 (OVCAR-5)	GI50 (Malme-3M)	GI50 (HCT-116)	GI50 (MOLT-4)	GI50 (MDA-N)
O=C(O)COc1ccc(C(=O)/C(SS/C(C(=O)c2ccc(OCC(=O)O)c(Cl)c2Cl)=C2\C=C(c3ccc(F)cc3)SS2)=C2/C=C(c3ccc(F)cc3)SS2)c(Cl)c1Cl	27.7 µM (inactive)	17.2 µM (inactive)	3.12 µM (inactive)	2.38 µM (inactive)	41.7 µM (inactive)	20.8 µM (inactive)	3.75 µM (inactive)	2.37 µM (inactive)	15.7 µM (inactive)	27.9 µM (inactive)	9.71	8.24 µM (inactive)	26.6 µM (inactive)	9.46 µM (inactive)	36.8 µM (inactive)	32.8 µM (inactive)	40.8 µM (inactive)	9.29 µM (inactive)	8.67 µM (inactive)	–
C[N+]12C=CC=C1C(N1CCCC1)c1scc(-c3ccc(F)cc3)c12 (stereo unspecified)	4.89 µM (inactive)	20.4 µM (inactive)	40.8 µM (inactive)	17.6 µM (inactive)	> 100 µM (inactive)	58.7 µM (inactive)	–	–	> 100 µM (inactive)	47.2 µM (inactive)	–	35.4 µM (inactive)	81.7 µM (inactive)	14.6 µM (inactive)	22 µM (inactive)	32.4 µM (inactive)	60.4 µM (inactive)	46.2 µM (inactive)	21.6 µM (inactive)	17.1 µM (inactive)
Cc1cnc(Cl)nc1C(C#N)c1nc2ccccc2n1C (stereo unspecified)	> 100 µM (inactive)	10.1 µM (inactive)	34.1 µM (inactive)	15.1 µM (inactive)	> 100 µM (inactive)	> 100 µM (inactive)	> 100 µM (inactive)	–	> 100 µM (inactive)	44.4 µM (inactive)	> 100	–	> 100 µM (inactive)	> 100 µM (inactive)	–	64.3 µM (inactive)	> 100 µM (inactive)	23.2 µM (inactive)	> 100 µM (inactive)	> 100 µM (inactive)
CCOc1c(OC)cc(C2c3cc4c(c(OCC)c3CC3COC(=O)C32)OCO4)cc1OC (stereo unspecified)	2.7 µM (inactive)	5.11 µM (inactive)	1.67 µM (inactive)	2.25 µM (inactive)	4.03 µM (inactive)	1 µM (active)	37.1 µM (inactive)	–	3.87 µM (inactive)	2.62 µM (inactive)	0.608	0.365 µM (active)	2.69 µM (inactive)	1.12 µM (active)	0.574 µM (active)	3.24 µM (inactive)	11.1 µM (inactive)	2.16 µM (inactive)	2.65 µM (inactive)	–
CCOc1ccc(/N=C/C=C(\Cl)c2ccc3ccccc3c2)cc1	20.2 µM (inactive)	14.3 µM (inactive)	6.58 µM (inactive)	19.5 µM (inactive)	19.7 µM (inactive)	18.8 µM (inactive)	15.3 µM (inactive)	8.59 µM (inactive)	15.2 µM (inactive)	12.8 µM (inactive)	13.7	15.8 µM (inactive)	16.7 µM (inactive)	15.2 µM (inactive)	17.7 µM (inactive)	17.8 µM (inactive)	14.2 µM (inactive)	9.14 µM (inactive)	2.55 µM (inactive)	–
Nn1c(CCCCCCCCc2nnc(COc3ccc4ccccc4c3O)n2N)nnc1COc1ccc2ccccc2c1O	22.1 µM (inactive)	51.1 µM (inactive)	–	14.6 µM (inactive)	44 µM (inactive)	28.6 µM (inactive)	17.3 µM (inactive)	–	28.4 µM (inactive)	33.9 µM (inactive)	22.3	26.4 µM (inactive)	33.8 µM (inactive)	–	27.2 µM (inactive)	14.2 µM (inactive)	4.48 µM (inactive)	9.75 µM (inactive)	14.9 µM (inactive)	–
